In patent publication US10981926B2 (Janssen Pharmaceutica NV, priority 2016, dated 2021):

How the values were obtained:
[1] = biological target: T1, wild-type Androgen Receptor (AR-wt) (Homo sapiens (Human), UniProt P10275); test: LNCaP-AR-wt ANT reporter assay (antagonist mode); format: cell-based; details: for IC50: pIC50 = −Log10(IC50 in Molar), read-out: LNCaP-AR-wt ANT pIC50 (converted); for Emax: read-out: LNCaP-AR-wt ANT MAX % Inh
[2] = biological target: T2, F876L mutant Androgen Receptor (AR-F876L) (Homo sapiens (Human), UniProt P10275, F877L); test: LNCaP-AR-F876L AG reporter assay (agonist mode); format: cell-based; details: for EC50: pEC50 = −Log10(EC50 in Molar), read-out: LNCaP-AR-F876L AG pEC50 (converted); for Emax: read-out: LNCaP-AR-F876L AG MAX % Stim
[3] = biological target: T1, wild-type Androgen Receptor (AR-wt); test: LNCaP-AR-wt AG reporter assay (agonist mode); format: cell-based; details: for EC50: pEC50 = −Log10(EC50 in Molar), read-out: LNCaP-AR-wt AG pEC50 (converted); for Emax: read-out: LNCaP-AR-wt AG MAX % Stim
[4] = biological target: T2, F876L mutant Androgen Receptor (AR-F876L); test: LNCaP-AR-F876L ANT reporter assay (antagonist mode); format: cell-based; details: for IC50: pIC50 = −Log10(IC50 in Molar), read-out: LNCaP-AR-F876L ANT pIC50 (converted); for Emax: read-out: LNCaP-AR-F876L ANT MAX % Inh
[5] = test system: rGABA-gated Cl− channel; test: GABA-Gated Cl Channel Antagonist Radioligand Binding Assay; parameters: species or system rat; details: 10 μM single point, [35S]-TBPS, cerebral cortex membrane homogenates
Procedure, shortened: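 Rat cerebral cortex membranes (120 μg protein) incubated 120 min at 22° C with 3 nM […] in 50 mM Na2HPO4/KH2PO4 pH 7.4, 500 mM NaCl; nonspecific binding defined with 20 μM picrotoxinin. Bound label counted after filtration; values are percent inhibition of specific binding at 10 μM compound.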

[6] = maximum % inhibition of R1881 control response over the tested concentration range
[7] = maximum % stimulation (agonist response) over the tested concentration range
[8] = antagonist mode, maximum % inhibition of R1881 control response over tested concentration range
[9] = agonist mode, maximum % stimulation over tested concentration range

T2 sequence (P10275 whole entry F877L): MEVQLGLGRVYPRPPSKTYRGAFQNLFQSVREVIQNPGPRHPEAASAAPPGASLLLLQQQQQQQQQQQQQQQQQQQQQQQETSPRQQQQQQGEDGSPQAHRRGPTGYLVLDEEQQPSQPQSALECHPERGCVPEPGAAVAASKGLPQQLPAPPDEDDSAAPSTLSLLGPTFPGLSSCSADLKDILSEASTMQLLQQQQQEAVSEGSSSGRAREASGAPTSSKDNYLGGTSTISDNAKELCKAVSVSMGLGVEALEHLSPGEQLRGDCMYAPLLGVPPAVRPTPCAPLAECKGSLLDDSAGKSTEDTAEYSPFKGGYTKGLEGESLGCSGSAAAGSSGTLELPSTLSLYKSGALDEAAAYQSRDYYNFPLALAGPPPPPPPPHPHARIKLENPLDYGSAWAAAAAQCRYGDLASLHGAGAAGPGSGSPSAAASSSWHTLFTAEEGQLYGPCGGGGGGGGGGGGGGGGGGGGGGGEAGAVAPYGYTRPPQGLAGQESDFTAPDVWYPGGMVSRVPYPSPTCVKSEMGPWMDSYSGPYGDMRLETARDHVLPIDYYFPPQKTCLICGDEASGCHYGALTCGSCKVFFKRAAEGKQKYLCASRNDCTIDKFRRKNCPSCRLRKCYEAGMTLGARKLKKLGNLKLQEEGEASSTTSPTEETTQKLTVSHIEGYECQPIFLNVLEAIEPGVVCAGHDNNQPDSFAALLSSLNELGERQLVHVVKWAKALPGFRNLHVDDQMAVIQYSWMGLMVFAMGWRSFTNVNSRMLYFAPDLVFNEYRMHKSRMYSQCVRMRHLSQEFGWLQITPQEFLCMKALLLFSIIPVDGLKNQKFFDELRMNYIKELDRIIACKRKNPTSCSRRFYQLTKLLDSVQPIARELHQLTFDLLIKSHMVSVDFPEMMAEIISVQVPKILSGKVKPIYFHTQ
T1 sequence (P10275 whole entry): as the sequence (P10275 whole entry F877L) above, with L877F counted along it

Row | SMILES | IC50 ([1]; antagonist mode) | Emax [1, 6] | EC50 ([2]; agonist mode) | Emax [2, 7] | EC50 ([3]; agonist mode) | Emax [3, 7] | IC50 ([4]; antagonist mode) | Emax [4, 6] | rGABA-gated Cl− channel % inh @10 μM [5] | Emax [1, 8] | Emax [2, 9] | Emax [3, 9] | Emax [4, 8]
1 | C[N@+]1([O-])CC[C@@H](Oc2ccc(N3C(=S)N(c4cnc(C#N)c(C(F)(F)F)c4)C(=O)C34CCC4)cc2)CC1 [Cpd 191, 5-[8-[4-(1-methyl-1-oxido-piperidin-1-ium-4-yl)oxyphenyl]-5-oxo-7-thioxo-6,8-diazaspiro[3.4]octan-6-yl]-3-(trifluoromethyl)pyridine-2-carbonitrile] | 1380 nM | – | > 15100 nM | – | > 15100 nM | – | 1120 nM | – | 47.9% | 99.4% | 0% | -0.2% | 99.8%
2 | COc1cc(N2C(=O)C3(CCC3)N(c3ccc4c(cnn4C4CCN(CCO)CC4)c3)C2=S)cnc1C#N [Cpd 225, 5-[8-[1-[1-(2-hydroxyethyl)-4-piperidyl]indazol-5-yl]-5-oxo-7-thioxo-6,8-diazaspiro[3.4]octan-6-yl]-3-methoxy-pyridine-2-carbonitrile] | 339 nM | – | > 15100 nM | – | > 15100 nM | – | 209 nM | – | 18.6% | 101% | 0.5% | 0.4% | 100%
3 | N#Cc1ncc(N2C(=O)C3(CCC3)N(c3ccc(CC4CCC(N)CC4)cc3)C2=S)cc1C(F)(F)F (stereo not drawn) [Cpd 233, 5-[8-[4-[(4-aminocyclohexyl)methyl]phenyl]-5-oxo-7-thioxo-6,8-diazaspiro[3.4]octan-6-yl]-3-(trifluoromethyl)pyridine-2-carbonitrile] | 240 nM | – | > 15100 nM | – | > 15100 nM | – | 186 nM | – | 80.2% | 108% | 0% | -0.2% | 103%
4 | N#Cc1ncc(N2C(=O)C3(CCC3)N(c3ccc(CC4CCNCC4)cc3)C2=S)cc1C(F)(F)F [Cpd 234, 5-[5-oxo-8-[4-(4-piperidylmethyl)phenyl]-7-thioxo-6,8-diazaspiro[3.4]octan-6-yl]-3-(trifluoromethyl)pyridine-2-carbonitrile] | 479 nM | – | > 15100 nM | – | > 15100 nM | – | 257 nM | – | 57.4% | 100% | 0% | 0.1% | 102%
5 | N#Cc1ncc(N2C(=O)C3(CCC3)N(c3ccc(SC4CCNCC4)cc3)C2=S)cc1C(F)(F)F [Cpd 240, 5-[5-oxo-8-[4-(4-piperidylsulfanyl)phenyl]-7-thioxo-6,8-diazaspiro[3.4]octan-6-yl]-3-(trifluoromethyl)pyridine-2-carbonitrile] | 457 nM | – | > 15100 nM | – | > 15100 nM | – | 224 nM | – | 44.7% | 106% | 0% | 1% | 105%

Other lines, results leading:

Row | IC50 ([1]; antagonist mode) | Emax [1, 6] | EC50 ([2]; agonist mode) | Emax [2, 7] | EC50 ([3]; agonist mode) | Emax [3, 7] | IC50 ([4]; antagonist mode) | Emax [4, 6] | rGABA-gated Cl− channel % inh @10 μM [5] | Emax [1, 8] | Emax [2, 9] | Emax [3, 9] | Emax [4, 8] | SMILES
6 | 324 nM | 96.4% | > 15100 nM | 0% | > 15100 nM | -0.1% | 158 nM | 99.2% | 48.5% | – | – | – | – | N#Cc1ncc(N2C(=O)C3(CCC3)N(c3ccc4nn(CCO)cc4c3)C2=S)cc1Cl [Cpd 162, 3-chloro-5-[8-[2-(2-hydroxyethyl)indazol-5-yl]-5-oxo-7-thioxo-6,8-diazaspiro[3.4]octan-6-yl]pyridine-2-carbonitrile]
7 | 186 nM | 99.6% | > 15100 nM | 0.2% | > 15100 nM | 0.2% | 112 nM | 100% | 80.8% | – | – | – | – | COCCn1cc2cc(N3C(=S)N(c4cnc(C#N)c(Cl)c4)C(=O)C34CCC4)ccc2n1 [Cpd 169, 3-chloro-5-[8-[2-(2-methoxyethyl)indazol-5-yl]-5-oxo-7-thioxo-6,8-diazaspiro[3.4]octan-6-yl]pyridine-2-carbonitrile]
8 | 339 nM | 99.2% | > 15100 nM | -0.1% | > 15100 nM | 0.2% | 174 nM | 100% | 94.9% | – | – | – | – | COCCn1cc2cc(N3C(=S)N(c4cnc(C#N)c(C(F)(F)F)c4)C(=O)C34CCC4)ccc2n1 [Cpd 172, 5-[8-[2-(2-methoxyethyl)indazol-5-yl]-5-oxo-7-thioxo-6,8-diazaspiro[3.4]octan-6-yl]-3-(trifluoromethyl)pyridine-2-carbonitrile]
9 | 407 nM | 102% | > 15100 nM | 0.1% | > 15100 nM | 0% | 219 nM | 101% | 94.9% | – | – | – | – | Cn1cc2cc(N3C(=S)N(c4cnc(C#N)c(C(F)(F)F)c4)C(=O)C34CCC4)ccc2n1 [Cpd 174, 5-[8-(2-methylindazol-5-yl)-5-oxo-7-thioxo-6,8-diazaspiro[3.4]octan-6-yl]-3-(trifluoromethyl)pyridine-2-carbonitrile]
10 | 269 nM | 101% | > 15100 nM | 0% | > 15100 nM | 0.1% | 141 nM | 101% | 25.6% | – | – | – | – | COCCn1cc2cc(N3C(=S)N(c4cnc(C#N)c(OC)c4)C(=O)C34CCC4)ccc2n1 [Cpd 175, 3-methoxy-5-[8-[2-(2-methoxyethyl)indazol-5-yl]-5-oxo-7-thioxo-6,8-diazaspiro[3.4]octan-6-yl]pyridine-2-carbonitrile]
11 | 219 nM | 106% | > 15100 nM | 0.2% | > 15100 nM | 0.2% | 97.7 nM | 104% | 36.7% | – | – | – | – | N#Cc1ncc(N2C(=O)C3(CCC3)N(c3ccc4nn(C5CCNCC5)cc4c3)C2=S)cc1Cl [Cpd 180, 3-chloro-5-[5-oxo-8-[2-(4-piperidyl)indazol-5-yl]-7-thioxo-6,8-diazaspiro[3.4]octan-6-yl]pyridine-2-carbonitrile]
12 | 513 nM | 100% | > 15100 nM | -0.1% | > 15100 nM | 0.3% | 275 nM | 101% | 37.9% | – | – | – | – | CN1CCC(n2ncc3cc(N4C(=S)N(c5cnc(C#N)c(Cl)c5)C(=O)C45CCC5)ccc32)CC1 [Cpd 183, 3-chloro-5-[8-[1-(1-methyl-4-piperidyl)indazol-5-yl]-5-oxo-7-thioxo-6,8-diazaspiro[3.4]octan-6-yl]pyridine-2-carbonitrile]
13 | 407 nM | – | > 15100 nM | – | > 15100 nM | – | 380 nM | – | 27.9% | 101% | 0% | 0% | 100% | N#Cc1ncc(N2C(=O)C3(CCC3)N(c3ccc(CN4CCNCC4)cc3)C2=S)cc1Cl [Cpd 207, 3-chloro-5-[5-oxo-8-[4-(piperazin-1-ylmethyl)phenyl]-7-thioxo-6,8-diazaspiro[3.4]octan-6-yl]pyridine-2-carbonitrile]
